Results from paper PMC8976278, “Hesperidin identified from Citrus extracts potently inhibits HCV genotype 3a NS3 protease” (BMC Complementary Medicine and Therapies, 2022).
≈ marks a conversion by molar mass, not a printed value. Like-named read-outs stand apart in the source and are kept apart here.

Columns and labels:
[1] = biological target: NS3-NS4A protease of HCV genotype-3a (Hepatitis C virus genotype 3a, UniProt Q81258); experiment: FRET assay of NS3-NS4A protease activity with depsipeptide substrate; format: biochemical; design: Activity, Slope trial 1st / Activity, Slope trial 2nd / Activity, Slope trial 3rd: unit not given here
Description: For measuring the protease activity, a FRET assay was performed using a depsipeptide substrate, Ac-Asp-Glu-Asp-(EDANS)-Glu-Glu-Abu-ψ-[COO]-Ala-Ser-Lys(DABCYL)-NH2 (AnaSpec,US). The fluorescence signal generated upon cleavage of the depsipeptide substrate by the NS3 protease domain was continuously recorded using excitation and emission wavelengths of 355 nm and 510 nm, respectively, and a fluorescence microplate reader (TECAN, US). In the case of the full-length NS3 protease, the reaction buffer (50 mM HEPES, pH 7.5, 0.4% Triton X-100, 10 mM DTT (Thermo Fisher Scientific), 3% DMSO (Thermo Fisher Scientific), and 40% glycerol) was pre-incubated (at 30 °C for 10 min) with 25 µM of a synthetic peptide, […] (purchased from LifeTein LLC, US), representing the core of the NS4A cofactor required for the catalytic activity. For the FRET assay, 1 nM of the full-length NS3 protease was used. In the case of NS3-NS4A, the protein (0.5 nM) was incubated in the reaction buffer at 30 °C for 10 min (without the synthetic peptide). The reaction was initiated by the addition of the substrate (10 µL) in a two-fold serial dilution up to a concentration of 2 µM. Reaction wells without the substrate were used as negative controls. For correction of the inner filter effect, a previously described procedure was followed. Kinetic parameters (such as kcat, Km, and kcat/Km) were calculated using the Michaelis–Menten equation. Data were fitted to the equation by non-linear regression using the GraphPad Prism® software (version 7.04, GraphPad Prism®, Inc., USA).
For validation of the FRET assay, commercially available inhibitors (asuanaprevir, ciluprevir, danoprevir, and telaprevir (purchased from AdooQ® Bioscience, US) were used to inhibit the activity of the target enzyme (NS3-NS4A protease of HCV genotype-3a), as described previously. Briefly, 1 µM of the depsipeptide substrate was added to the protein, pre-incubated with a given inhibitor, and fluorescence measurements were recorded for 20, 30, or 60 min using 355 nm and 510 nm as excitation and emission wavelengths, respectively. The IC50 value, representing the half-maximal inhibitory concentration, of each commercial inhibitor was calculated using the GraphPad Prism® software (version 7.04, GraphPad Prism®, Inc., USA). The experiment was performed in triplicates, and the average value obtained was considered as the IC50 value.
Reaction mixtures (300 µL) were prepared in the assay buffer (50 mM HEPES, pH 7.5, 0.4% Triton X-100, 10 mM DTT, and 40% glycerol). For initial screening, 3.33 mg of the plant extract was dissolved in 1 mL DMSO, and was transferred to the reaction buffer such that the final concentration of DMSO was 3%. The reaction was initiated by adding 0.5 nM NS3-NS4A protease, and the released RET S1 FRET substrate was monitored using a fluorescence microplate reader (TECAN). Reaction mixtures (also containing 3% DMSO) without any plant extract were used for recording blank measurements. The background fluorescence contributed by the plant extract was also recorded. For calculation of the calibration curve, spiking with known amounts (0.25 µM, 0.5 µM, 1 µM, and 2 µM) of the free FRET substrate (RET S1) was made while keeping the reaction mixture at the same volume, containing all the constituents (the plant extract, the assay buffer as well as the enzyme). Slope of the curve was correlated with that obtained from free FRET substrate concentrations without any plant extract as well as the substrate. Initial reaction rates were calculated, and the percentage (%) enzyme inhibition was calculated using the equation: 100 x [a-b/a] where “a” refers to the fluorescence value generated by the reaction mixture only (without the plant extract) and “b” is the solution fluorescence in the presence of the plant extract. […]

HCV NS3 protease = system: HCV NS3 protease; design: method as in earlier work; settings: ref [49], [50]; Table S3 ref [1], [2]; cited from earlier work
[2] = biological target: NS3 protease domain of HCV genotype 3a fused to the cognate NS4A cofactor (NS3-NS4A) (hepatitis C virus genotype 3a)
[3] = FRET assay validation, 1 µM depsipeptide substrate, triplicates, read-out: IC50 value (commercial inhibitors) (converted)

NS3-NS4A protease of HCV genotype-3a, sequence (Q81258 1033-1213, other chains not shown): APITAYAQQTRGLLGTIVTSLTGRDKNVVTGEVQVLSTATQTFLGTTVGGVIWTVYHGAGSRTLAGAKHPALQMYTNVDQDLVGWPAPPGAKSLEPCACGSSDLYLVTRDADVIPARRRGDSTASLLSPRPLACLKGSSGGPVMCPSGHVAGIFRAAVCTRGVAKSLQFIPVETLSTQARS

| Compound | IC50 [1, 3] [nM] | Activity, Slope trial 1st ([1]; inhibitor conc. 1.3717 nM) | Activity, Slope trial 2nd ([1]; inhibitor conc. 1.3717 nM) | Activity, Slope trial 3rd ([1]; inhibitor conc. 1.3717 nM) | Average Slope ([1]; inhibitor conc. 1.3717 nM) | Activity, Slope trial 1st ([1]; inhibitor conc. 4.1152 nM) | Activity, Slope trial 2nd ([1]; inhibitor conc. 4.1152 nM) | Activity, Slope trial 3rd ([1]; inhibitor conc. 4.1152 nM) | Average Slope ([1]; inhibitor conc. 4.1152 nM) | Activity, Slope trial 1st ([1]; inhibitor conc. 12.3456 nM) | Activity, Slope trial 2nd ([1]; inhibitor conc. 12.3456 nM) | Activity, Slope trial 3rd ([1]; inhibitor conc. 12.3456 nM) | Average Slope ([1]; inhibitor conc. 12.3456 nM) | Activity, Slope trial 1st ([1]; inhibitor conc. 37.037 nM) | Activity, Slope trial 2nd ([1]; inhibitor conc. 37.037 nM) | Activity, Slope trial 3rd ([1]; inhibitor conc. 37.037 nM) | Average Slope ([1]; inhibitor conc. 37.037 nM) | Activity, Slope trial 1st ([1]; inhibitor conc. 111.1111 nM) | Activity, Slope trial 2nd ([1]; inhibitor conc. 111.1111 nM) | Activity, Slope trial 3rd ([1]; inhibitor conc. 111.1111 nM) | also measured |
| --- | --- | --- | --- | --- | --- | --- | --- | --- | --- | --- | --- | --- | --- | --- | --- | --- | --- | --- | --- | --- | --- |
| C=C[C@@H]1C[C@]1(NC(=O)[C@@H]1C[C@@H](Oc2ncc(OC)c3ccc(Cl)cc23)CN1C(=O)[C@@H](NC(=O)OC(C)(C)C)C(C)(C)C)C(=O)NS(=O)(=O)C1CC1 [Asunaprevir] | 68.3 |  |  |  |  |  |  |  |  |  |  |  |  |  |  |  |  |  |  |  |  |
| COc1ccc2c(O[C@@H]3C[C@H]4C(=O)N[C@]5(C(=O)O)C[C@H]5/C=C\CCCCC[C@H](NC(=O)OC5CCCC5)C(=O)N4C3)cc(-c3csc(NC(C)C)n3)nc2c1 [Ciluprevir] | 53.2 |  |  |  |  |  |  |  |  |  |  |  |  |  |  |  |  |  |  |  |  |
| CC(C)(C)OC(=O)N[C@H]1CCCCC/C=C\[C@@H]2C[C@@]2(C(=O)NS(=O)(=O)C2CC2)NC(=O)[C@@H]2C[C@@H](OC(=O)N3Cc4cccc(F)c4C3)CN2C1=O [Danoprevir] | 25.1 | 1.677 | 2.153 | 9.123 | 4.31 | 1.449 | 1.834 | 9.072 | 4.11 | 0.991 | 0.979 | 5.934 | 2.63 | 0.450 | 0.460 | 2.283 | 1.06 | 0.196 | 0.174 | 0.757 | Average Slope ([1]; inhibitor conc. 111.1111 nM): 0.37; Activity, Slope trial 1st ([1]; inhibitor conc. 333.3333 nM): 0; Activity, Slope trial 2nd ([1]; inhibitor conc. 333.3333 nM): 0.039; Activity, Slope trial 3rd ([1]; inhibitor conc. 333.3333 nM): 0.003151; Average Slope ([1]; inhibitor conc. 333.3333 nM): 0.01; Activity, Slope trial 1st ([1]; inhibitor conc. 1000 nM): 0; Activity, Slope trial 2nd ([1]; inhibitor conc. 1000 nM): 0; Activity, Slope trial 3rd ([1]; inhibitor conc. 1000 nM): 0; Average Slope ([1]; inhibitor conc. 1000 nM): 0; IC50 value [reported in the literature] (HCV NS3 protease): 0.0146 µg/mL (≈ 0.0199 µM) |
| O=c1oc2c(O)c(O)cc3c(=O)oc4c(O)c(O)cc1c4c23 [Ellagic acid] |  |  |  |  |  |  |  |  |  |  |  |  |  |  |  |  |  |  |  |  | IC50 ([1]; commercially obtained pure compound, hesperidin 1230 to 1.67 µg/mL, read-out: IC50 value (pure natural compound) (converted)): 98000 nM |
| CCC[C@H](NC(=O)[C@@H]1[C@H]2CCC[C@H]2CN1C(=O)[C@@H](NC(=O)[C@@H](NC(=O)c1cnccn1)C1CCCCC1)C(C)(C)C)C(=O)C(=O)NC1CC1 [Telaprevir] | 69.9 | 4.176 | 2.087 | 2.395 | 2.88 | 4.77 | 3.604 | 1.309 | 3.22 | 3.041 | 1.613 | 2.131 | 2.26 | 3.796 | 1.828 | 1.004 | 2.20 | 1.774 | 1.116 | 0.627 | Average Slope ([1]; inhibitor conc. 111.1111 nM): 1.17; Activity, Slope trial 1st ([1]; inhibitor conc. 333.3333 nM): 0.5776; Activity, Slope trial 2nd ([1]; inhibitor conc. 333.3333 nM): 0.3406; Activity, Slope trial 3rd ([1]; inhibitor conc. 333.3333 nM): 0.163; Average Slope ([1]; inhibitor conc. 333.3333 nM): 0.36; Activity, Slope trial 1st ([1]; inhibitor conc. 1000 nM): 1.246; Activity, Slope trial 2nd ([1]; inhibitor conc. 1000 nM): 0.081; Activity, Slope trial 3rd ([1]; inhibitor conc. 1000 nM): 0; Average Slope ([1]; inhibitor conc. 1000 nM): 0.44; IC50 value [reported in the literature] (HCV NS3 protease): 0.0387 µg/mL (≈ 0.0569 µM) |
| depsipeptide substrate Ac-Asp-Glu-Asp-(EDANS)-Glu-Glu-Abu-ψ-[COO]-Ala-Ser-Lys(DABCYL)-NH2 |  |  |  |  |  |  |  |  |  |  |  |  |  |  |  |  |  |  |  |  | Km of cleavage of the depsipeptide substrate by NS3-NS4A (0.5 nM) in the FRET protease assay, Michaelis-Menten fit [2]: 8.79 µM |
